Measurements published in patent US20060058350A1, “Alkynyl-substituted azasugar derivative and drug containing the same as the active ingredient” (Carna Biosciences, Inc., priority 2002, published 2006).
pKi: −log10 of the molar value.

What was measured:
Assay type in all cases: biochemical
[1] = molecular target: T1, MMP-1 (Homo sapiens, UniProt P03956); experiment: Measurement of matrix metalloprotease (MMP) inhibitory activity, MMP-1, fluorescence quenching peptide substrate; settings: recombinant catalytic region of MMP-1; 37° C., 2 hours; Ki calculated from IC50 and Km; read-out: Ki MMP1
T1 construct: A DNA fragment coding for catalytic regions in MMP-1 and MMP-9; histidine tag (N); made in house; host or cells: E. coli
T1 sequence (P03956 98-276 limits assumed): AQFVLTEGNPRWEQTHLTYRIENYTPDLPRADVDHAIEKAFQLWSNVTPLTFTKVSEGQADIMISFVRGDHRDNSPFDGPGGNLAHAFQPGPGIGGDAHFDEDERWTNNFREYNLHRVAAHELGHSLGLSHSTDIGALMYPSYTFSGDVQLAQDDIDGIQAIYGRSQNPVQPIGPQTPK
Protocol: (§1) A DNA fragment coding for catalytic regions in MMP-1 and MMP-9 was amplified by a PCR method with cDNA prepared from HT-1080 cells derived from human fibrosarcoma. In the same manner, a DNA fragment containing a pro-region and a catalyst region in MMP-3 was also prepared. The amplified DNA fragment was cloned into a commercially available expression vector which was designed to allow a histidine tag to add to the N-terminal, and then transformed into E. coli. The resulting transformants were cultured and a recombinant MMP was purified from a cell lysate using Ni-NTA regin (QIAGEN INC.). Recombinant MMP-3 was further activated by reacting with 1 mM para-aminophenyl mercury acetate at 37° C. for one hour.
(§2) The inhibitory activity was measured according to the method by Night et al. [FEBS Lett. 296, p 263 (1992)] or the method by Nagase et al. [J. Biol. Chem. 269, p 20952 (1994)] using a 96-half well black microplate. A solution prepared by dissolving each of test compounds (a) to (f) in dimethyl sulfoxide was diluted with a reaction buffer [50 mM Tris-HCl (pH 7.5) buffer containing 150 mM NaCl, 10 mM CaCl2, 0.05% Brij-35®] and then 25 μL of the dilute solution was added in a well.
(§3) After 25 μL of a MMP solution diluted with the reaction buffer was added thereto, the mixture was incubated at 37° C. for 10 minutes. Then, the reaction was initiated by adding 50 μL of a 10 μM fluorescence quenching peptide substrate prepared from the reaction buffer. As the fluorescence quenching peptide substrate, MCA-Pro-Leu-Gly-Leu-DPA-Ala-Arg-NH2 (MCA=7-methoxycoumarin-4-acetyl and DPA=N-3-(2,4-dinitrophenyl)-L-2,3-diaminopropionyl) were used for MMP-1 and MMP-9, and MCA-Arg-Pro-Lys-Pro-Val-Nva-Trp-Arg-Lys (DNP)-NH2 (DNP=2,4-dinitrophenyl) was used for MMP-3. A fluorescence intensity (excitation 320/fluoresecence 405 nm) immediately after the initiation of the reaction and a fluorescence intensity after the reaction at 37° C. (for 2 hours for MMP-1 and MMP-3, for 3 hours for MMP-9) were measured and a difference in fluorescence intensity was taken as an indicator of enzymatic activity. The inhibition rate (%) at each concentration of an inhibitor was calculated and an IC50 value was determined from the dose-response curve. From this IC50 value and previously determined Km value for a […] substrate, a Ki value was calculated using GraphPad Prism software (GraphPad Software, Inc.).

[2] = molecular target: T2, MMP-3 (Homo sapiens, UniProt P08254); experiment: Measurement of matrix metalloprotease (MMP) inhibitory activity, MMP-3, fluorescence quenching peptide substrate; settings: recombinant MMP-3 activated with para-aminophenyl mercury acetate; 37° C., 2 hours; Ki calculated from IC50 and Km; read-out: Ki MMP3
T2 construct: a DNA fragment containing a pro-region and a catalyst region in MMP-3 was also prepared; histidine tag (N); made in house; host or cells: E. coli
T2 sequence (P08254 100-272 limits assumed): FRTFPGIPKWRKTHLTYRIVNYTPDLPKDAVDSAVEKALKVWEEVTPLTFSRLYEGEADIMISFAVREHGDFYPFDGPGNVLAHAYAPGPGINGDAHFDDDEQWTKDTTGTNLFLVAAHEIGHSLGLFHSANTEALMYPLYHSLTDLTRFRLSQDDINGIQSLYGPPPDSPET
Protocol: as §1, §2, §3

[3] = molecular target: T3, MMP-9 (Homo sapiens, UniProt P14780); experiment: Measurement of matrix metalloprotease (MMP) inhibitory activity, MMP-9, fluorescence quenching peptide substrate; settings: read-out: Ki MMP9
T3 construct: A DNA fragment coding for catalytic regions in MMP-1 and MMP-9; histidine tag (N); made in house; host or cells: E. coli
T3 sequence (P14780 107-444 limits assumed): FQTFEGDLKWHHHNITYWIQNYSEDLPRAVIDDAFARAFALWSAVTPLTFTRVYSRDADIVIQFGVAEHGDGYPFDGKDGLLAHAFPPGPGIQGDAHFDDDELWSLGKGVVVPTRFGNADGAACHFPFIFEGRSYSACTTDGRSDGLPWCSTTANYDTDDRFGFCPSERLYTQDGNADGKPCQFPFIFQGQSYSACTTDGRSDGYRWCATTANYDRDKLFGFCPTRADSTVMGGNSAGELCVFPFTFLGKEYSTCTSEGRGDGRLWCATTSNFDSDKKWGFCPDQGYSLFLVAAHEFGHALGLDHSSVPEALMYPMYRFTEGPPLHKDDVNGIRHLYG
Protocol: as §1, §2, §3

[4] = molecular target: T4, TNF-α converting enzyme (TACE) (Homo sapiens, UniProt P78536); experiment: Measurement of inhibitory activity against TNF-α converting enzyme (TACE), fluorescence quenching peptide substrate
T4 construct: a DNA fragment cording a signal region, a pro-region and a catalytic region was amplified by a PCR method; FLAG octapeptide (C); made in house; host or cells: insect cells (baculovirus, pFastBac)
T4 sequence (P78536 223-474 limits assumed): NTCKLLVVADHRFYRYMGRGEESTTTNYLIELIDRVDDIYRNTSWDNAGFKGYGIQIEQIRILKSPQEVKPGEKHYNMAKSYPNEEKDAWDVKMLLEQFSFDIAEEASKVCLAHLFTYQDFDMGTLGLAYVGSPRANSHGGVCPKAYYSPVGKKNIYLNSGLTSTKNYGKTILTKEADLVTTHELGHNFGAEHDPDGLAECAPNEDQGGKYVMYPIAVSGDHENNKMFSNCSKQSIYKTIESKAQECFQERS
Protocol: A full length cDNA for TACE was cloned from THP-1 cells derived from human acute monocytic leukemia and a DNA fragment cording a signal region, a pro-region and a catalytic region was amplified by a PCR method. An appropriate restriction enzyme recognizing sequence was added to both terminals of the amplified fragment and also a sequence of an antigenic octapeptide (FLAG™) tag was inserted in the 3′ terminal. A recombinant bacmid was prepared from the resulting amplified fragment using a pFastBac system (Life Technologies) and then transfected into insect cells to generate a recombinant baculovirus. Insect cells were infected with the recombinant baculovirus and the recombinant TACE released into culture supernatant was purified by an affinity gel column.
The inhibitory activity was measured according to the method by Van Dyke et al. [Bioorg. […] A solution prepared by dissolving each of test compounds (a) to (f) in dimethylsulfoxide was diluted with a reaction buffer [20 mM tris-HCl buffer (pH 7.5) containing 0.05% Brij-35®] and then 40 μL of the dilute solution was added in a well. […] The inhibition rate (%) at each concentration of an inhibitor was calculated and an IC50 value was determined from the dose-response curve. From this IC50 value and previously determined Km value for a TACE substrate, a Ki value was calculated using data processing software (GraphPad Prism™, GraphPad Software, Inc.).

Row | SMILES | pKi [1] | pKi [2] | pKi [3] | pKi [4]
1 | CC#CCOc1ccc(S(=O)(=O)N2C[C@H](OC)[C@H](O)[C@@H](O)[C@@H]2C(=O)NO)cc1 [Compound (c), (2R,3S,4R,5S)-1-(4′-but-2′-ynyloxybenzenesulfonyl)-3,4-dihydroxy-5-methoxypiperidine-2-carboxylic acid hydroxamide] | < 6.07 | < 6.19 | < 6.10 | 8.62
2 | CC#CCOc1ccc(S(=O)(=O)N2C[C@H](O)[C@H](O)[C@@H](OCc3ccccc3)[C@@H]2C(=O)NO)cc1 [Compound (b), (2R,3S,4S,5S)-3-benzyloxy-1-(4′-but-2′-ynyloxybenzenesulfonyl)-4,5-dihydroxypiperidine-2-carboxylic acid hydroxamide] | < 6.07 | < 6.19 | < 6.10 | 8.03
3 | CC#CCOc1ccc(S(=O)(=O)N2C[C@H](O)[C@H](O)[C@@H](O)[C@@H]2C(=O)NO)cc1 [Compound (d), (2R,3S,4S,5S)-1-(4′-but-2′-ynyloxybenzenesulfonyl)-3,4,5-trihydroxy-piperidine-2-carboxylic acid hydroxamide] | < 6.07 | 6.31 | < 6.10 | 
4 | CO[C@@H]1[C@@H](O)[C@@H](O)CN(S(=O)(=O)c2ccc(OCC#CCO)cc2)[C@H]1C(=O)NO [Compound (f), (2R,3S,4S,5S)-4,5-dihydroxy-1-[4′-(4″-hydroxy-but-2′-ynyloxy)benzenesulfonyl]-3-methoxy-piperidine-2-carboxylic acid hydroxamide] | < 6.07 | < 6.19 | < 6.10 | 7.74

Next, values leading:

Row | pKi [1] | pKi [2] | pKi [3] | pKi [4] | SMILES
5 | < 6.07 | < 6.19 | < 6.10 | 8.37 | CC#CCOc1ccc(S(=O)(=O)N2C[C@H](O)[C@H](O)[C@@H](OC)[C@@H]2C(=O)NO)cc1 [Compound (a), (2R,3S,4S,5S)-1-(4′-but-2′-ynyloxybenzenesulfonyl)-4,5-dihydroxy-3-methoxypiperidine-2-carboxylic acid hydroxamide]
6 | < 6.07 | < 6.19 | < 6.10 | 8.07 | CC#CCOc1ccc(S(=O)(=O)N2C[C@H](O)[C@H](O)[C@@H](OCC)[C@@H]2C(=O)NO)cc1 [Compound (e), (2R,3S,4S,5S)-1-(4′-but-2′-ynyloxybenzenesulfonyl)-4,5-dihydroxy-3-ethoxypiperidine-2-carboxylic acid hydroxamide]
